Where a name gives a salt, the structure may show the parent alone.
Each compound was assayed against IRAK4 (Homo sapiens (Human), UniProt Q9NWZ3) (assay: IRAK4 Kinase Assay (IMAP fluorescence polarization)). Settings: 0.5 nM GST tagged IRAK4, 100 μM ATP, 30 minutes at 25° C., IMAP FP.
Type: biochemical
Protocol: The kinase activity of IRAK4 is determined by its ability to catalyze the phosphorylation of a fluorescent polypeptide substrate. The extent of phosphorylation is measured using the IMAP technology (Molecular Devices) where the phosphorylated fluorescent substrate binds to the large M (III)-based nanoparticles which reduces the rotational speed of the substrate and thus increases its fluorescent polarization (FP).
20 μL reaction mixture contains 10 mM TriHCl, pH 7.2, 0.5 nM GST tagged IRAK4 (SignalChem), 100 nM fluorescent peptide substrate (RP7030, Molecular Devices), 100 μM ATP, 1 mM DDT, 1 mM MgCl2, and 0.01% Tween 20. The reaction is initiated by the addition of ATP. After incubation for 30 minutes at 25° C., 60 μL of Progressive IMAP Reagent (Molecular Devices) is added to stop the reaction. Change in RP7030's FP is determined by a FP reader (Analyst HT, LJL BioSystems).

Sequence of IRAK4 (Q9NWZ3 whole entry): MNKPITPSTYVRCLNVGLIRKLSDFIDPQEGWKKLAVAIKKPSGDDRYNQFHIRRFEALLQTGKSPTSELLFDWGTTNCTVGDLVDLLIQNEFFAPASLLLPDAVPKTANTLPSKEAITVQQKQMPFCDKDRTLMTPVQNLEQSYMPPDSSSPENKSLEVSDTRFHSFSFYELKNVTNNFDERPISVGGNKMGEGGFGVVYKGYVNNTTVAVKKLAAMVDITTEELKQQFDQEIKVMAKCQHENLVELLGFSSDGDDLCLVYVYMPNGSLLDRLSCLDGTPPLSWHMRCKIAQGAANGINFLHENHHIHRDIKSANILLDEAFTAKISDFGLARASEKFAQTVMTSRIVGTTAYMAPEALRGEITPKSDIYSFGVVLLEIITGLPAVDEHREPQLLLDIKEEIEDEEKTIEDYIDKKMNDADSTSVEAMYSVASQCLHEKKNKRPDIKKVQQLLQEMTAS

IC50 [nM] | Structure (SMILES)
122 | Cn1cc(NC(=O)c2ccc3ccc(N[C@@H]4CCCC[C@@H]4O)nn23)c(C(F)(F)F)n1 [Example 5, 2-{[(1R,2S)-2-hydroxycyclo-hexyl]amino}-N-[1-methyl-3-(trifluoromethyl)-1H-pyrazol-4-yl]pyrrolo[1,2-b]pyridazine-7-carboxamide trifluoroacetate]
2 | Cn1cc(NC(=O)c2ccc3ccc(N[C@@H]4CCCC[C@@H]4N)nn23)c(Br)n1 [Example 22, 2-{[(1R,2S)-2-amino-cyclohexyl]amino}-N-(3-bromo-1-methyl-1H-pyrazol-4-yl)pyrrolo[1,2-b]pyridazine-7-carboxamide trifluoroacetate]
19 | Cn1cc(NC(=O)c2ccc3ccc(N4CC5CCC4CN5)nn23)c(C(F)(F)F)n1 (centres unmarked) [Example 8, 2-(2,5-diazabicyclo[2.2.2]oct-2-yl)-N-[1-methyl-3-(trifluoromethyl)-1H-pyrazol-4-yl]pyrrolo[1,2-b]pyridazine-7-carboxamide]
34 | Cn1cc(NC(=O)c2ccc3ccc(N[C@@H]4CCCC(F)(F)[C@@H]4N)nn23)c(C(F)F)n1 [Example 28, 2-{[(1R,2R)-2-amino-3,3-difluorocyclohexyl]amino}-N-[3-(difluoromethyl)-1-methyl-1H-pyrazol-4-yl]pyrrolo[1,2-b]pyridazine-7-carboxamide trifluoroacetate]
2980 | N[C@@H]1[C@H](Nc2ccc3ccc(C(=O)Nc4ccsc4C(F)(F)F)n3n2)CCCC1(F)F [Example 117, 2-{[(1R,2R)-2-amino-3,3-difluorocyclohexyyl]amino}-N-[2-(trifluoromethyl)thiophen-3-yl]pyrrolo[1,2-b]pyridazine-7-carboxamide trifluoroacetate]
825 | N#Cc1ccccc1NC(=O)c1ccc2ccc(N[C@@H]3CCCC(F)(F)[C@@H]3N)nn12 [Example 110, 2-{[(1R,2R)-2-amino-3,3-difluorocyclohexyl]amino}-N-(2-cyanophenyl)pyrrolo [1,2-b]pyridazine-7-carboxamide trifluoroacetate]
189 | Cn1cc(NC(=O)c2ccc3ccc(N[C@@H]4CCCC(F)(F)[C@@H]4N)nn23)c(C(F)(F)F)n1 [Example 7, 2-{[(1R,2R)-2-amino-3,3-difluorocyclo-hexyl]amino}-N-[1-methyl-3-(trifluoromethyl)-1H-pyrazol-4-yl]pyrrolo[1,2-b]pyridazine-7-carboxamide trifluoroacetate]
7390 | N[C@@H]1[C@H](Nc2ccc3ccc(C(=O)Nc4ccccc4C(F)F)n3n2)CCCC1(F)F [Example 118, 2-{[(1R,2R)-2-amino-3,3-difluorocyclohexyl]amino}-N-[2-(difluoromethyl)phenyl]pyrrolo[1,2-b]pyridazine-7-carboxamide trifluoroacetate]
275 | Cn1cc(NC(=O)c2ccc3ccc(N[C@@H]4CCCC(F)(F)[C@@H]4N)nn23)c(Br)n1 [Example 32, 2-{[(1R,2R)-2-amino-3,3-difluoro-cyclohexyl]amino}-N-(3-bromo-1-methyl-1H-pyrazol-4-yl)pyrrolo[1,2-b]pyridazine-7-carboxamide trifluoroacetate]
2170 | N[C@@H]1[C@H](Nc2ccc3ccc(C(=O)Nc4cscc4Cl)n3n2)CCCC1(F)F [Example 87, 2-{[(1R,2R)-2-amino-3,3-difluoro-cyclohexyl]amino}-N-(4-chlorothiophen-3-yl)pyrrolo[1,2-b]pyridazine-7-carboxamide acetate]
1 | Cn1cc(NC(=O)c2ccc3ccc(N[C@@H]4CCCNC4)nn23)c(C(F)(F)F)n1 [Example 6, N-[1-methyl-3-(trifluoromethyl)-1H-pyrazol-4-yl]-2-[(3R)-piperidin-3-ylamino]pyrrolo[1,2-b]pyridazine-7-carboxamide trifluoroacetate]

Continued, compound first:

Structure (SMILES) | IC50 [nM]
Cn1cc(NC(=O)c2ccc3ccc(N[C@@H]4CCCC[C@@H]4O)nn23)c(Cl)n1 [Example 53, N-(3-chloro-1-methyl-1H-pyrazol-4-yl)-2-{[(1R,2S)-2-hydroxycyclohexyl]amino}pyrrolo[1,2-b]pyridazine-7-carboxamide trifluoroacetate] | 55
Cn1cc(NC(=O)c2ccc3ccc(N4CCNCC4)nn23)c(C(F)F)n1 [Example 14, N-[3-(difluoromethyl)-1-methyl-1H-pyrazol-4-yl]-2-piperazin-1-ylpyrrolo[1,2-b]pyridazine-7-carboxamide trifluoroacetate] | 2
O=C(Nc1ccccc1Br)c1ccc2ccc(N3CC4CCC3CN4)nn12 (centres unmarked) [Example 61, N-(2-bromophenyl)-2-(2,5-diazabicyclo[2.2.2]oct-2-yl)pyrrolo[1,2-b]pyridazine-7-carboxamide trifluoroacetate] | 1660
Cn1cc(NC(=O)c2ccc3ccc(N4CCNCC5(CC5)C4)nn23)c(C(F)F)n1 [Example 18, 2-(5,8-diazaspiro[2.6]non-5-yl)-N-[3-(difluoromethyl)-1-methyl-1H-pyrazol-4-yl]pyrrolo[1,2-b]pyridazine-7-carboxamide trifluoroacetate] | 2
O=C(Nc1cscc1C(F)F)c1ccc2ccc(N3CCCNCC3)nn12 [Example 69, 2-(1,4-diazepan-1-yl)-N-[4-(difluoromethyl)thiophen-3-yl]pyrrolo[1,2-b]pyridazine-7-carboxamide trifluoroacetate] | 151
O=C(Nc1ccsc1Cl)c1ccc2ccc(N3CCCNCC3)nn12 [Example 66, N-(2-chlorothiophen-3-yl)-2-(1,4-diazepan-1-yl)pyrrolo[1,2-b]pyridazine-7-carboxamide trifluoroacetate] | 636
N#Cc1ccccc1NC(=O)c1ccc2ccc(N[C@@H]3CCCNC3)nn12 [Example 105, N-(2-cyanophenyl)-2-[(3R)-piperidin-3-ylamino]pyrrolo[1,2-b]pyridazine-7-carboxamide trifluoroacetate] | 6
N[C@H]1CCCC[C@H]1Nc1ccc2ccc(C(=O)Nc3ccccc3Br)n2n1 [Example 58, 2-{[(1R,2S)-2-aminocyclohexyl]amino}-N-(2-bromo-phenyl)pyrrolo[1,2-b]pyridazine-7-carboxamide trifluoroacetate] | 11
Cn1cc(NC(=O)c2ccc3ccc(N4C[C@@H]5CC[C@H]4CN5)nn23)c(Cl)n1 (single isomer, unassigned) [Example 33, N-(3-chloro-1-methyl-1H-pyrazol-4-yl)-2-[(1S,4S)- or (1R,4R)-2,5-diazabicyclo[2.2.2]oct-2-yl]pyrrolo[1,2-b]pyridazine-7-carboxamide trifluoroacetate] | 45
N[C@H]1CCCC[C@H]1Nc1ccc2ccc(C(=O)Nc3ccsc3Cl)n2n1 [Example 71, 2-{[(1R,2S)-2-aminocyclohexyl]amino}-N-(2-chlorothiophen-3-yl)pyrrolo[1,2-b]pyridazine-7-carboxamide trifluoroacetate] | 4
Cn1cc(NC(=O)c2ccc3ccc(N4C5CCC4CNC5)nn23)c(C(F)(F)F)n1 [Example 120, 2-(3,8-diazabicyclo[3.2.1]oct-8-yl)-N-[1-methyl-3-(trifluoromethyl)-1H-pyrazol-4-yl]pyrrolo[1,2-b]pyridazine-7-carboxamide trifluoroacetate] | 2
Cn1cc(NC(=O)c2ccc3ccc(N4C[C@H]5CN[C@H](C5)C4)nn23)c(C(F)(F)F)n1 (single isomer, unassigned) [Example 4, 2-[(1S,5S)- or (1R,5R)-3,6-diazabicyclo[3.2.1]oct-3-yl]-N-[1-methyl-3-(trifluoromethyl)-1H-pyrazol-4-yl]pyrrolo[1,2-b]pyridazine-7-carboxamide] | 131
N#Cc1cscc1NC(=O)c1ccc2ccc(N[C@@H]3CCCC[C@@H]3N)nn12 [Example 73, 2-{[(1R,2S)-2-aminocyclohexyl]amino}-N-(4-cyanothiophen-3-yl)pyrrolo[1,2-b]pyridazine-7-carboxamide trifluoroacetate] | 3
Cn1cc(NC(=O)c2ccc3ccc(N[C@H]4CCCCNC4)nn23)c(C(F)F)n1 (single isomer, unassigned) [Example 42, 2-[(3R)- or (3S)-azepan-3-ylamino]-N-[3-(difluoromethyl)-1-methyl-1H-pyrazol-4-yl]pyrrolo[1,2-b]pyridazine-7-carboxamide trifluoroacetate] | 0.3
N#Cc1cscc1NC(=O)c1ccc2ccc(N3CC4CCC3CN4)nn12 (centres unmarked) [Example 74, N-(4-cyanothiophen-3-yl)-2-(2,5-diazabicyclo[2.2.2]oct-2-yl)pyrrolo[1,2-b]pyridazine-7-carboxamide trifluoroacetate] | 134
O=C(Nc1cscc1Br)c1ccc2ccc(N3CC4CCC3CN4)nn12 (centres unmarked) [Example 62, N-(4-bromothiophen-3-yl)-2-(2,5-diazabicyclo[2.2.2]oct-2-yl)pyrrolo[1,2-b]pyridazine-7-carboxamide trifluoroacetate] | 415
Cn1cc(NC(=O)c2ccc3ccc(N4CCCNCC4)nn23)c(C(F)F)n1 [Example 15, 2-(1,4-diazepan-1-yl)-N-[3-(difluoromethyl)-1-methyl-1H-pyrazol-4-yl]pyrrolo[1,2-b]pyridazine-7-carboxamide trifluoroacetate] | 2
N#Cc1sccc1NC(=O)c1ccc2ccc(N3C[C@H]4CC[C@@H]3CN4)nn12 (single isomer, unassigned) [Example 81, N-(2-cyanothiophen-3-yl)-2-[(1S,4S)- or (1R,4R)-2,5-diazabicyclo[2.2.2]oct-2-yl]pyrrolo[1,2-b]pyridazine-7-carboxamide formate] | 356

From US10040798B2, “Pyrrolopyridazine inhibitors of IRAK4 activity” (MERCK SHARP & DOHME CORP., priority 2015, dated 2018)
